The values below are quoted from earlier work in patent publication US20040132743A1 (DR. REDDY'S LABORATORIES LIMITED DR. REDDY'S LABORATORIES, …, priority 2002, published 2004).

For series [1] the following is noted: amorphous form compared with crystalline form.
The conditions of series [2]: in vivo.
The conditions of series [3]: studies in patients.

Regarding `CO/N=C(\C(=O)N[C@@H]1C(=O)N2C(C(=O)OC(C)OC(C)=O)=C(COC(N)=O)CS[C@H]12)c1ccco1` (stereo partly drawn) [amorphous form of cefuroxime axetil, cefuroxime axetil], in series [1], the bioavailability entry was “higher bioavailability than its crystalline form”.
In the case of `O=C(O)COCCN1CCN([C@H](c2ccccc2)c2ccc(Cl)cc2)CC1` [Levocetirizine], in series [2], the “side effects on the central nervous system” value was “free from side effects on the central nervous system”.
In the case of `O=C(O)COCCN1CCN(C(c2ccccc2)c2ccc(Cl)cc2)CC1` (racemic) [cetirizine], the “symptomatic relief of seasonal allergies” value in series [3] is “safe and effective, symptomatic relief of seasonal allergies”.
